{
  "source": "patent US11377447B2",
  "about": "“Targeted therapeutics” (MADRIGAL PHARMACEUTICALS, INC., priority 2017, dated 2022)",
  "experiment": "pH of reconstituted and diluted drug product solution",
  "format": "physicochemical",
  "details": "lyophilized powder reconstituted with Water for Injection",
  "method": "This solution is filled to deliver 105 mg/vial into a container closure system consisting of a USP Type 1 clear glass vial, stopper, and overseal. The drug product is stored at 2° C. to 8° C., away from light. Prior to administration the lyophilized powder is reconstituted with Water for Injection and then is further diluted in 0.9% Sodium Chloride Injection, USP to the target concentration prior to use. SDC-TRAP-0063 Sodium may have a concentration of between about 25 to about 50 mg/mL, between about 50 to about 100 mg/mL, between about 100 to about 150 mg/mL, or between about 150 to 200 mg/mL. The drug product is intended for intravenous administration by infusion.\nThe reconstituted solution of SDC-TRAP-0063 Sodium has a pH of 10.0. This solution is diluted to the target dose in 0.9% sodium chloride injection, USP. The pH of the infusion solution depends on the concentration of SDC-TRAP-0063 Sodium in the diluted infusion solution. Across the dose ranges employed in the clinical study protocol, the volume of the diluted infusion solution administered will range from 50 to 500 mL, and the pH will range from 8.1 to 9.6. In order to reduce the potential risks of injection site pain and/or damage to the venous endothelium during IV administration, a central venous access line is used for administration of the diluted SDC-TRAP-0063 Sodium.",
  "data": [
    {"smiles": "CCc1c2c(nc3ccc(OC(=O)N4CCC(CCn5ccc6cc(-n7c(O)nnc7-c7cc(C(C)C)c(O)cc7O)ccc65)CC4)cc13)-c1cc([C@@](O)(CC)C(=O)[O-])c(CO)c(=O)n1C2.[Na+]", "note": "[SDC-TRAP-0063 Sodium, Sodium (S)-2-(2-((4-(2-(5-(3-(2,4-dihydroxy-5-isopropylphenyl)-5-hydroxy-4H-1,2,4-triazol-4-yl)-1H-indol-1-yl)ethyl)piperidine-1-carbonyl)oxy)-12-ethyl-8-(hydroxymethyl)-9-oxo-9,11-dihydroindolizino[1,2-b]quinolin-7-yl)-2-hydroxybutanoate]", "values": [
      {"measurement": "pH of the reconstituted solution", "value": 10.0}
    ]}
  ]
}
